Key:
mice = experiment: Acute toxicity in mice after oral administration; format: in vivo
From the text: (§1) The acute toxicity of compounds of this invention has been evaluated after oral administration in mice

enkephalinase [1] = biological target: T1, enkephalinase (Rattus norvegicus, UniProt P07861); experiment: Inhibition of enkephalinase, particulate fraction of rat striata, 3H-Tyr-Leucine-Enkephalin substrate; format: biochemical, rats; conditions: read-out: Drug concentration which inhibits 50% of the enzymatic activities (IC50(M)), Enkephalinase
T1 construct: enzymatic preparation extracted from the particulate fraction of striata of rats; from tissue; host or cells: rat striatum, particulate fraction purified on discontinuous sucrose gradient
T1 sequence (P07861 1-750): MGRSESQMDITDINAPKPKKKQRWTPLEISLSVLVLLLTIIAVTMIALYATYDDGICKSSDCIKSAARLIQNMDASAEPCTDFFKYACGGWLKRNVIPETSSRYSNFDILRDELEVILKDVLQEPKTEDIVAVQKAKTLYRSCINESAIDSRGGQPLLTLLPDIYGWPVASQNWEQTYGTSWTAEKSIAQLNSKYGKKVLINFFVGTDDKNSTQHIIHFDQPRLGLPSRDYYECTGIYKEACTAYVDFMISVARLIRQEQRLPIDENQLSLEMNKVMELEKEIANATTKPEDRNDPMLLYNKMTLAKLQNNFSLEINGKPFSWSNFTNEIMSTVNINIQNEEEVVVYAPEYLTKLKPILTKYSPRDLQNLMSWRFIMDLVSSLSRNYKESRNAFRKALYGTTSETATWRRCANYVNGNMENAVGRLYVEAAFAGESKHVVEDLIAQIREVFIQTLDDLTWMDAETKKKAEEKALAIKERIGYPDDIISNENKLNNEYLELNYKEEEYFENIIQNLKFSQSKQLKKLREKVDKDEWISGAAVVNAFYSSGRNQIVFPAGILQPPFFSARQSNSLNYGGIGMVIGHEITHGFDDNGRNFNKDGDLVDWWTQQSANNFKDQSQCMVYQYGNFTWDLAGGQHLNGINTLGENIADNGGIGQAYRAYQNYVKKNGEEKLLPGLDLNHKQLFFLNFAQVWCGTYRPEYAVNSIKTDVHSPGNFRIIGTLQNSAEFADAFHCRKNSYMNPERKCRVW
From the text: The evaluation of the inhibitory effect on enkephalinase and on aminopeptidase activity respectively has been made as follows:
(a) enkephalinase: it has been used the enzymatic preparation extracted from the particulate fraction of striata of rats purified on discontinous gradient of sucrose (Blumberg et al., Life Sci., 28, (1981), 301); the evaluation of the enzymatic activity has been made using ^3 H-Tyr-Leucine-Enkephalin as substrate (Vogel and Alstein, FEBS Lett., 80, (1977), 332).

amino peptidase = biological target: T2, amino peptidase (Rattus norvegicus, UniProt F1M9V7); experiment: Inhibition of amino peptidase, soluble fraction of rat striata, 3H-Tyr-Leucine-Enkephalin substrate; format: biochemical, rats; conditions: read-out: Drug concentration which inhibits 50% of the enzymatic activities (IC50(M)), Amino Peptidase
T2 construct: as enzyme source it has been used the soluble fraction of point (a) above; from tissue; host or cells: rat striatum, soluble fraction
T2 sequence (F1M9V7 1-920): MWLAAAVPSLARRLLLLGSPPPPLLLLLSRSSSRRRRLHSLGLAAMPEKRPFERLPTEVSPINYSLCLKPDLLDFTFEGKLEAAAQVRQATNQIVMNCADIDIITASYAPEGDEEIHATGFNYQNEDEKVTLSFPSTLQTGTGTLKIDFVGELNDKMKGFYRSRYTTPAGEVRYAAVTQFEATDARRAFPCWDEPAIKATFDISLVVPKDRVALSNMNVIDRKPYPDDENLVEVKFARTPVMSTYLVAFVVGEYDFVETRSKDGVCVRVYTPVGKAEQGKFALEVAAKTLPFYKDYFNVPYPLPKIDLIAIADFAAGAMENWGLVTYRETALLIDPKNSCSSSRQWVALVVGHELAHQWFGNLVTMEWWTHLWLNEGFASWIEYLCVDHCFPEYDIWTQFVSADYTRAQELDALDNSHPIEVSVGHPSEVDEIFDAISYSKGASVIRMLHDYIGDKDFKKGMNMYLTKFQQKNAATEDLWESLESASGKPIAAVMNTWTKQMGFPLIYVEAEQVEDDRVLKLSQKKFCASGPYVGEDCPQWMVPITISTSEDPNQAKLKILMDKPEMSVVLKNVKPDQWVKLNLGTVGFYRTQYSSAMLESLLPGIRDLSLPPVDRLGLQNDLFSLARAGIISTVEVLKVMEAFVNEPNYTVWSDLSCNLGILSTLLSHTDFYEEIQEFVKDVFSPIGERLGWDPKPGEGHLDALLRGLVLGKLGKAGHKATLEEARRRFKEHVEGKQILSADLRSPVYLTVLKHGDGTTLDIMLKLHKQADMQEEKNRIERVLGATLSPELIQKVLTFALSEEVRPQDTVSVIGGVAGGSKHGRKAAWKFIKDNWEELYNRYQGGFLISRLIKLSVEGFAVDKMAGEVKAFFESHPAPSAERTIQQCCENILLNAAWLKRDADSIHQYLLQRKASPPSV
From the text: The evaluation of the inhibitory effect on enkephalinase and on aminopeptidase activity respectively has been made as follows: […]

enkephalinase [2] = biological target: T3, enkephalinase (Mus musculus, UniProt Q61391); experiment: Potentiation of Met-Enk analgesia in mice, hot plate test, intracerebral administration; format: in vivo
T3 construct: potentiation of the analgesic effect induced in mice by Methionine-Enkephalin; from tissue; host or cells: endogenous enzyme in the brain of living mice (intracerebral administration)
T3 sequence (Q61391 1-750): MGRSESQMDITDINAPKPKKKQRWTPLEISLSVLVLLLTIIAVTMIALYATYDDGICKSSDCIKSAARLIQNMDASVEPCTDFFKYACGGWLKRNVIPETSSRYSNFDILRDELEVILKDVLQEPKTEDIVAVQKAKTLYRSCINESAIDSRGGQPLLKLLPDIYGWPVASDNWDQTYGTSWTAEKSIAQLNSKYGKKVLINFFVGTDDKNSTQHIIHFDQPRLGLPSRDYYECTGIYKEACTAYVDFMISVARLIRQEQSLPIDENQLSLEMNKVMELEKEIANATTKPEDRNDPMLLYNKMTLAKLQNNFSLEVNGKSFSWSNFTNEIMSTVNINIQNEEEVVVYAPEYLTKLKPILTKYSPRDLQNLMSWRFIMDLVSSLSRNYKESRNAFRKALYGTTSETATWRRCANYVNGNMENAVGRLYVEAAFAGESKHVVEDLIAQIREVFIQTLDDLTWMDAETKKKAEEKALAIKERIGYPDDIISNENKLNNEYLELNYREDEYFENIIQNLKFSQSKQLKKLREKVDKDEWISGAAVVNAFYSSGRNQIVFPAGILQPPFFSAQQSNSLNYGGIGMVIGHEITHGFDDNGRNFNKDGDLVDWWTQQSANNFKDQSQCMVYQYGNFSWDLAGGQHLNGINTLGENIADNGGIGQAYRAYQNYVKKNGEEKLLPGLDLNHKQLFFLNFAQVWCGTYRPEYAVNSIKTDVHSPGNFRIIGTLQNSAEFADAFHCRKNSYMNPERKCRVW

[3] = Acute toxicity in mice after oral administration; format: in vivo; conditions: mouse, in vivo
From the text: as §1

[4] = Met-Enk 50 μg/ic + compound 12,5 μg/ic
[5] = Met-Enk 50 μg/ic + compound 25 μg/ic
[6] = Met-Enk 50 μg/ic + compound 50 μg/ic

Row | Molecule | IC50 (enkephalinase [1]) | IC50 (amino peptidase) | further results
1 | 2-(2-acetylthiomethyl-propionamido)-picolinic acid [Example 26] | – | – | LD50 (mice): 421 mg/kg
2 | CC(C)C[C@H](NC(=O)[C@@H](O)[C@H](N)Cc1ccccc1)C(=O)O [Bestatin, reference compound] | > 1e-06 M | 2e-07 M | –
3 | C[C@H](CS)C(=O)N1CCC[C@H]1C(=O)O [Captopril, 1,-(3-mercapto-2-methyl-1-oxopropyl)-L-proline, reference compound] | > 1e-06 M | > 1e-06 M | –
4 | CC(CS)C(=O)Nc1ccc(C(=O)O)cn1 (stereo not shown) [Example 8, 6-(2-mercaptomethyl-propionamido)-nicotinic acid] | 5e-07 M | > 1e-06 M | Latency Time X ± SE (sec) (enkephalinase [2]; [4]): 19,6 ± 2,1 sec
5 | COC(=O)c1ncccc1NC(=O)C(C)CSC(C)=O (stereo not shown) [Example 24, methyl 3-(2-acetylthiomethyl-propionamido)-picolinate] | – | – | LD50 [3]: 390 mg/kg
6 | COC(=O)c1ncccc1NC(=O)C(C)CS (stereo not shown) [Example 25, methyl 3-(2-mercaptomethyl-propionamido)-picolinate] | – | – | LD50 [3]: 329 mg/kg
7 | Methionine-Enkephalin [Met--Enk, reference compound] | – | – | Latency Time X ± SE (sec) (enkephalinase [2]; Met-Enk alone 50 μg/ic): 14,7 ± 1,3 sec

Further lines, with some results ahead:

Row | IC50 (enkephalinase [1]) | IC50 (amino peptidase) | Molecule | further results
8 | 2e-07 M | > 1e-06 M | COC(=O)c1cncc(NC(=O)C(C)CS)c1 (stereo not shown) [Example 13, methyl 5-(2-mercaptomethyl-propionamido)-nicotinate] | –
9 | 5e-08 M | > 1e-06 M | CC(CS)C(=O)Nc1cncc(C(=O)O)c1 (stereo not shown) [Example 14, 5-(2-mercaptomethyl-propionamido)-nicotinic acid] | Latency Time X ± SE (sec) (enkephalinase [2]; [5]): 27,7 ± 1,5 sec
10 | 7e-07 M | > 1e-06 M | COC(=O)c1cncc(N(C)C(=O)C(C)CSC(C)=O)c1 (stereo not shown) [Example 16, methyl 5-(2-acetylthiomethyl-N-methyl-propionamido)-nicotinate] | Latency Time X ± SE (sec) (enkephalinase [2]; Met-Enk 50 μg/ic + compound 5 μg/ic): 14,8 ± 1,1 sec
11 | 1e-07 M | > 1e-06 M | CC(CS)C(=O)N(C)c1cncc(C(=O)O)c1 (stereo not shown) [Example 17, 5-(2-mercaptomethyl-N-methyl-propionamido)-nicotinic acid] | Latency Time X ± SE (sec) (enkephalinase [2]; [6]): 13,8 ± 1,4 sec
12 | 3e-07 M | > 1e-06 M | C[C@H](CSC(=O)c1ccccc1)C(=O)Nc1cncc(C(=O)O)c1 [Example 18a, S(-)-5-(2-benzoylthiomethyl-propionamido)-nicotinic acid] | Latency Time X ± SE (sec) (enkephalinase [2]; [6]): 13,1 ± 0,9 sec
13 | 2e-07 M | > 1e-06 M | CC(CS)C(=O)Nc1ccc(C(=O)O)nc1 (stereo not shown) [Example 23, 5-(2-mercaptomethyl-propionamido)-picolinic acid] | Latency Time X ± SE (sec) (enkephalinase [2]; [5]): 26,1 ± 2,1 sec
14 | 1.8e-09 M | > 1e-06 M | O=C(O)c1ccnc(NC(=O)C(CS)Cc2ccccc2)c1 (stereo not shown) [Example 28, 2-(2-mercaptomethyl-3-phenyl-propionamido)-isonicotinic acid] | Latency Time X ± SE (sec) (enkephalinase [2]; [6]): 27,0 ± 1,6 sec
15 | 5e-07 M | > 1e-06 M | CC(CS)C(=O)Nc1cc(C(=O)O)ccn1 (stereo not shown) [Example 31, 2-(2-mercaptomethyl-propionamido)-isonicotinic acid] | Latency Time X ± SE (sec) (enkephalinase [2]; [4]): 15,4 ± 1,2 sec

From patent US4528296A, “Derivatives of aminopyridinecarboxylic acids and pharmaceutical compositions containing them” (Simes, Societa Italiana Medicinalle Sintetici, priority 1982, dated 1985)
